Article PMC8522729 (Antimicrobial Agents and Chemotherapy, 2021)
Values after ≈ are worked out from the molar mass of the structure shown. Like-named read-outs stand apart in the source and are kept apart here.

Experiments:
M. tuberculosis H37Rv [1] = system: M. tuberculosis H37Rv; parameters: method as in PMID 19299584; settings: cited from earlier work
[2] = cited from earlier work
[3] = cited from earlier work; remark: listed apart in the source
[4] = C3HeB/FeJ, mouse, in vivo
M. tuberculosis [5] = settings: QD, cited from earlier work
[6] = Plasma, lung and lesion drug levels (LC-MS/MS and LCM-LC-MS/MS)
[7] = system: nonreplicating bacteria in rabbit caseum; assay: Caseum MBC assay; type: cell-based, Mycobacterium tuberculosis; settings: 7 days
M. tuberculosis Kurono = system: M. tuberculosis Kurono; parameters: method as in PMID 32229496; settings: chronic ICR mouse model, cited from earlier work
[8] = system: M. tuberculosis Erdman-infected C3HeB/FeJ mice; assay: Efficacy in the C3HeB/FeJ mouse tuberculosis model (CFU in lungs and spleens, kill rates); type: in vivo; settings: for dose at which maximal efficacy in spleens was achieved / LME (lowest dose with the maximum effect) in lungs: 8 weeks of treatment, OPC-167832 QD; for dose at which maximal efficacy in spleens was achieved: TBA-7371 BID (not yet achieved); for LME (lowest dose with the maximum effect) in lungs: TBA-7371 BID, PBTZ169 QD; for average lung CFU reduction compared to untreated controls: 5 of 7 days per week; for CFU reduction in spleen: spleens; for CFU reduction in spleen / effect on lung CFU compared to pretreatment control and untreated controls: 4 weeks of treatment, all doses; for effect on lung CFU compared to pretreatment control and untreated controls: P > 0.05
M. tuberculosis Erdman = assay: MIC by broth microdilution (MABA), with and without 4% huSA (serum-shift assay); settings: for Serum shift (fold increase): M. tuberculosis Erdman, MIC with 4% huSA vs without; for protein binding by this assay (MIC shift): indicated by 8-fold MIC shift with 4% huSA
M. tuberculosis [9] = settings: cited from earlier work
M. tuberculosis [10] = settings: chronic BALB/c mouse model, cited from earlier work
[11] = system: pulmonary pathology of M. tuberculosis-infected C3HeB/FeJ mice; assay: Pulmonary histopathology (pathologist scoring and LIRA); type: in vivo; settings: 100 mg/kg QD, 8 weeks
M. tuberculosis H37Rv [12] = assay: MIC by broth microdilution (MABA), with and without 4% huSA (serum-shift assay); settings: MIC with 4% huSA vs without
M. tuberculosis [13] = system: M. tuberculosis; parameters: method as in PMID 24957839, PMID 24215368, PMID 24874895; settings: acute BALB/c mouse model; 100 mg/kg QD; cited from earlier work
[14] = C3HeB/FeJ, mouse, in vivo, 5 mg/kg
[15] = lungs, 8 weeks, all three OPC-167832 groups, TBA-7371 medium and high dose, PBTZ169 medium and high dose, P < 0.05 Dunnett

For `C[C@H]1COC2(CCN(c3nc(=O)c4cc(C(F)(F)F)cc([N+](=O)[O-])c4s3)CC2)O1` [BTZ043], the MIC (M. tuberculosis H37Rv [1]) is given as 0.001 µg/mL (≈ 0.00232 µM), the selectivity index [2] is given as > 10,000 and the plasma protein binding [3] is given as > 99.8%.

For `O=C1CCc2c(OC[C@]3(O)CCN(c4c(F)cc(Cl)cc4F)C[C@H]3O)ccc(F)c2N1` [OPC-167832], the “concentration in caseum (acellular) at T1, fold above the MIC+huSA” value ([4]; 1 h) was 12 fold, the “concentration in caseum at T1, fold in excess of the MIC+huSA” value ([4]; 1 h) was 20 fold and the “plasma and lung concentration at T1, fold above the MIC+huSA” value ([4]; 1 h) was 75-85 fold. The “MED99 (minimal effective dose giving 2-log reduction in lung bacterial load vs untreated)” value (M. tuberculosis [5]) was 5 mg/kg, the “drug level in caseous core / cellular-caseum interface at plasma Cmax, fold in excess of the MIC+huSA” value ([6]; 5 mg/kg QD, 2.5 weeks) was “approximately 21 fold” and the Cmax at 1 h [6, 14] was 35 ng/g. For the same molecule, the concentration at 1 h [6, 14] was 190 ng/g, the concentration at 24 h [6, 14] was 34 to 108 ng/g and the MBC ([7]; Mycobacterium tuberculosis, 168 h, rabbit caseum, read-out: caseum MBC90) was 500 µg/mL (≈ 1090 µM). The “reduction from treatment start in caseum” value ([7]; highest concentration tested (1 mg/ml), P = 0.0005) was 1 log, the “CFU reduction in lungs versus the start of treatment” value (M. tuberculosis Kurono; 5 mg/kg for 4 weeks) was > 1.5 log10 CFU and the “dose showing bactericidal activity” value (M. tuberculosis Kurono) was 0.625 mg/kg. The “dose at which maximal efficacy in spleens was achieved” value [8] was 5 mg/kg, the “LME (lowest dose with the maximum effect) in lungs” value (shortened to “LME”) [8] was 5 mg/kg and the “average lung CFU reduction compared to untreated controls” value (shortened to “average lung CFU reduction”) ([8]; 8 weeks, 5 and 20 mg/kg QD) was 3 log10 CFU. The “efficacy in lungs versus the pretreatment control group” value ([8]; lungs, 4 weeks, 20 mg/kg QD, P = 0.04 Dunnett) was “statistically significant efficacy”, the “lung bacterial load compared to the untreated control group” value ([8]; lungs, 4 weeks, all three dose groups (1.25, 5, 20 mg/kg QD), P = 0.002 to 0.03 Dunnett) was “statistically significant reduction in lung bacterial load” and the “lung bacterial load compared to the untreated control group” value [8, 15] was “statistical significant reduction in the lung bacterial load”. For the same molecule, the “CFU reduction in spleen” value [8] was “dose-dependent CFU reduction”, the “Serum shift (fold increase)” value (M. tuberculosis Erdman) was 8 fold and the “protein binding by this assay (MIC shift)” value (M. tuberculosis Erdman) was ~88%.

In the case of `O=c1nc(N2CCN(CC3CCCCC3)CC2)sc2c([N+](=O)[O-])cc(C(F)(F)F)cc12` [PBTZ169, macozinone], the “MIC fold lower versus BTZ043” value (M. tuberculosis [9]) is given as 3 fold, the selectivity index [2] is given as > 10,000 and the “CFU reduction in lungs versus untreated controls” value (M. tuberculosis [10]; after 4 weeks of treatment) is given as 1 log10 CFU. For the same molecule, the “additional CFU reduction in lungs versus BTZ043” value (M. tuberculosis [10]) was 0.5 log10 CFU, the “additional CFU reduction in spleens versus BTZ043” value (M. tuberculosis [10]) was 1 log10 CFU and the “plasma and lung concentration at T1, fold above the MIC+huSA” value ([4]; 15 min) was 11-20 fold. For the same molecule, the “MED99 (minimal effective dose giving 2-log reduction in lung bacterial load vs untreated)” value (M. tuberculosis [5]; published or reported mouse infection studies, no reference given) was 50 mg/kg, the “Cmax in the cellular-caseum interface and caseum, fold lower than plasma or whole lung Cmax” value ([6]; 50 mg/kg QD, 2.5 weeks) was 10 fold and the “concentration in plasma and lungs at T1 (Cmax)” value ([6]; 50 mg/kg QD, 2.5 weeks, T1 15 min) was “around 1 μg/ml or μg/g”. For the same molecule, the “type III cellular lesions, lung involvement (LIRA)” value [11] was “more than 35%”, the “type III lesion lung involvement relative to untreated control group (LIRA)” value [11] was “more than 2 fold” and the “LME” value [8] was 50 mg/kg. The “average lung CFU reduction” value ([8]; 8 weeks, 50 and 100 mg/kg QD) was 1.5 log10 CFU, the “effect on lung CFU compared to pretreatment control and untreated controls” value ([8]; lungs) was “not statistically significant” and the “lung bacterial load compared to the untreated control group” value [8, 15] was “statistical significant reduction in the lung bacterial load”. For the same molecule, the “CFU reduction in spleen” value [8] was “no statistically significant CFU reduction”, the “Serum shift (fold increase)” value (M. tuberculosis Erdman) was 8 fold and the “protein binding by this assay (MIC shift)” value (M. tuberculosis Erdman) was ~88%.

With `O=[N+]([O-])c1cn2c(n1)OC[C@@H](OCc1ccc(OC(F)(F)F)cc1)C2` [Pretomanid, pretomanid] the “Serum shift (fold increase)” value (M. tuberculosis H37Rv [12]) was 4 fold and the “Serum shift (fold increase)” value (M. tuberculosis Erdman) was 4 fold.

For `COc1ncnc(Cn2cc(C(=O)NCCO)c3ncc(C)cc32)c1C` [TBA-7371], the MIC (M. tuberculosis [9]) is given as 0.64 µg/mL (≈ 1.8 µM), the “CFU reduction in lungs” value (M. tuberculosis [10]; 100 mg/kg QD) is given as 1.5 log10 CFU and the “MED99 (minimal effective dose giving 2-log reduction in lung bacterial load vs untreated)” value (M. tuberculosis [5]) is given as 100 mg/kg. The Cmax ([6]; C3HeB/FeJ, mouse, in vivo, 100 mg/kg) was ~8600 ng/g, the “CFU reduction in lungs compared to untreated controls” value (M. tuberculosis [13]) was “more than 2 log10 CFU” and the “dose at which maximal efficacy in spleens was achieved” value [8] was ≥ 200 mg/kg. For the same molecule, the “LME” value [8] was 100 mg/kg, the “average lung CFU reduction” value ([8]; 8 weeks, 100 and 200 mg/kg BID) was 1.5 log10 CFU and the “effect on lung CFU compared to pretreatment control and untreated controls” value ([8]; lungs) was “not statistically significant”. The “lung bacterial load compared to the untreated control group” value [8, 15] was “statistical significant reduction in the lung bacterial load” and the “CFU reduction in spleen” value [8] was “dose-dependent CFU reduction”.
